According to PubChem BioAssay (NCI):
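In this assay, cells in 96-well plates receive the compound at five concentrations for 48 hours. Endpoints are linearly interpolated between the surrounding concentrations. TGI is the concentration that stops growth completely.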

What was measured:
Assay in all cases: NCI tumour cell line growth inhibition, 48 h
OVCAR-4 ovarian = test system: OVCAR-4 ovarian
RXF-631 renal = test system: RXF-631 renal
MALME-3M melanoma = test system: MALME-3M melanoma
UACC-62 melanoma = test system: UACC-62 melanoma
NCI-H522 lung = test system: NCI-H522 lung
A498 renal = test system: A498 renal
HL-60(TB) leukemia = test system: HL-60(TB) leukemia
K-562 leukemia = test system: K-562 leukemia
DMS 273 small cell lung = test system: DMS 273 small cell lung
UACC-257 melanoma = test system: UACC-257 melanoma
SK-MEL-28 melanoma = test system: SK-MEL-28 melanoma
SK-OV-3 ovarian = test system: SK-OV-3 ovarian
OVCAR-5 ovarian = test system: OVCAR-5 ovarian
NCI-H460 lung = test system: NCI-H460 lung
HOP-62 NSCLC = test system: HOP-62 NSCLC
HCT-15 colon = test system: HCT-15 colon
EKVX NSCLC = test system: EKVX NSCLC
DLD-1 colon = test system: DLD-1 colon
SNB-75 CNS = test system: SNB-75 CNS
NCI-H23 lung = test system: NCI-H23 lung
UO-31 renal = test system: UO-31 renal
SW-620 colon = test system: SW-620 colon
SK-MEL-5 melanoma = test system: SK-MEL-5 melanoma
COLO 205 colon = test system: COLO 205 colon
DMS 114 small cell lung = test system: DMS 114 small cell lung
KM20L2 colon = test system: KM20L2 colon
OVCAR-3 ovarian = test system: OVCAR-3 ovarian
A549 NSCLC = test system: A549 NSCLC
SF-295 CNS = test system: SF-295 CNS
LXFL 529 NSCLC = test system: LXFL 529 NSCLC
CAKI-1 renal = test system: CAKI-1 renal
SF-539 CNS = test system: SF-539 CNS
ACHN renal = test system: ACHN renal
786-0 renal = test system: 786-0 renal
OVCAR-8 ovarian = test system: OVCAR-8 ovarian
HCC-2998 colon = test system: HCC-2998 colon
SN12C renal = test system: SN12C renal
IGROV1 ovarian = test system: IGROV1 ovarian
RPMI-8226 leukemia = test system: RPMI-8226 leukemia
SNB-19 CNS = test system: SNB-19 CNS
HT29 colon = test system: HT29 colon
HCT-116 colon = test system: HCT-116 colon
U251 CNS = test system: U251 CNS
SNB-78 CNS = test system: SNB-78 CNS
SF-268 CNS = test system: SF-268 CNS
NCI-H226 lung = test system: NCI-H226 lung
HOP-92 NSCLC = test system: HOP-92 NSCLC
M14 melanoma = test system: M14 melanoma
TK-10 renal = test system: TK-10 renal
MOLT-4 leukemia = test system: MOLT-4 leukemia
HOP-18 NSCLC = test system: HOP-18 NSCLC
M19-MEL melanoma = test system: M19-MEL melanoma
KM12 colon = test system: KM12 colon
CCRF-CEM leukemia = test system: CCRF-CEM leukemia

SMILES: CC(=O)c1ccc(OCC(O)CO)cc1 (centres undefined)
- TGI (OVCAR-4 ovarian): > 100 µM
- TGI (RXF-631 renal): > 100 µM
- TGI (MALME-3M melanoma): > 100 µM
- TGI (UACC-62 melanoma): > 100 µM
- TGI (NCI-H522 lung): > 100 µM
- TGI (A498 renal): > 100 µM
- TGI (HL-60(TB) leukemia): > 100 µM
- TGI (K-562 leukemia): > 100 µM
- TGI (DMS 273 small cell lung): > 100 µM
- TGI (UACC-257 melanoma): > 100 µM
- TGI (SK-MEL-28 melanoma): > 100 µM
- TGI (SK-OV-3 ovarian): > 100 µM
- TGI (OVCAR-5 ovarian): > 100 µM
- TGI (NCI-H460 lung): > 100 µM
- TGI (HOP-62 NSCLC): > 100 µM
- TGI (HCT-15 colon): > 100 µM
- TGI (EKVX NSCLC): > 100 µM
- TGI (DLD-1 colon): > 100 µM
- TGI (SNB-75 CNS): > 100 µM
- TGI (NCI-H23 lung): > 100 µM
- TGI (UO-31 renal): > 100 µM
- TGI (SW-620 colon): 29.4 µM
- TGI (SK-MEL-5 melanoma): > 100 µM
- TGI (COLO 205 colon): > 100 µM
- TGI (DMS 114 small cell lung): > 100 µM
- TGI (KM20L2 colon): > 100 µM
- TGI (OVCAR-3 ovarian): > 100 µM
- TGI (A549 NSCLC): > 100 µM
- TGI (SF-295 CNS): > 100 µM
- TGI (LXFL 529 NSCLC): > 100 µM
- TGI (CAKI-1 renal): > 100 µM
- TGI (SF-539 CNS): > 100 µM
- TGI (ACHN renal): > 100 µM
- TGI (786-0 renal): 76.2 µM
- TGI (OVCAR-8 ovarian): > 100 µM
- TGI (HCC-2998 colon): > 100 µM
- TGI (SN12C renal): > 100 µM
- TGI (IGROV1 ovarian): > 100 µM
- TGI (RPMI-8226 leukemia): > 100 µM
- TGI (SNB-19 CNS): > 100 µM
- TGI (HT29 colon): > 100 µM
- TGI (HCT-116 colon): 33.5 µM
- TGI (U251 CNS): > 100 µM
- TGI (SNB-78 CNS): > 100 µM
- TGI (SF-268 CNS): > 100 µM
- TGI (NCI-H226 lung): > 100 µM
- TGI (HOP-92 NSCLC): > 100 µM
- TGI (M14 melanoma): > 100 µM
- TGI (TK-10 renal): > 100 µM
- TGI (MOLT-4 leukemia): > 100 µM
- TGI (HOP-18 NSCLC): > 100 µM
- TGI (M19-MEL melanoma): > 100 µM
- TGI (KM12 colon): > 100 µM
- TGI (CCRF-CEM leukemia): > 100 µM
